Assay results reported in patent US7312219B2, “Heteroaromatic inhibitors of fructose 1,6-bisphosphatase” (Metabasis Therapeutics, Inc., priority 1998, dated 2007).

Key:
[1] = system: db/db Mouse; experiment: Hepatic Glycogen Levels in the db/db Mouse; format: in vivo; details: db/db mice
Experimental: Db/db mice and their nondiabetic db/+ littermates were obtained at 8 weeks of age (Jackson Labs., Bar Harbor, Me.) and enrolled in the study at 11 weeks of age. […] Db/+ mice were treated with saline according to the same schedule. At 6 pm, mice were anesthetized with halothane and a small section of liver (0.5 g) was removed by the freeze-clamping technique. The liver samples were fully frozen by subsequent immersion in liquid nitrogen and then homogenized in 5 volumes of cold 0.6 N perchloric acid. Glycogen content was determined enzymatically in the homogenates by the method of Keppler and Decker (Keppler D and Decker K in Methods of Enzymatic Analysis, Bergmeyer, H U, Ed., Verlag Chemie International, Deerfield Beach, Fla., 1974).

[2] = system: Fasted Rats; experiment: Blood Glucose Lowering Following Intravenous Administration to Fasted Rats; format: in vivo, rat; details: 18 h fasted Sprague Dawley rats, relative to saline-treated controls
Experimental: Inhibitors were disolved in water and the solution adjusted to neutrality with NaOH. Blood samples were obtained from the tail vein of conscious animals just prior to injection and after 1 hour. Blood glucose was measured using a HemoCue Inc. glucose analyzer according to the instructions of the manufacturer.

[3] = Analysis of Drug Levels and Liver Accumulation in Rats; format: in vivo, rat; details: Sprague-Dawley, rat, iv; fasted rats, 10 mgs/kg i.v., one hour post injection, plasma; read-out: Plasma Conc.
Experimental: The compound was dissolved in water and the solution adjusted to neutrality with NaOH. One hour post injection rats were anesthetized with halothane and a liver biopsy (approx. 1 g) was taken as well as a blood sample (2 ml) from the posterior vena cava. A heparin flushed syringe and needle were used for blood collection. The liver sample was immediately homogenized in ice-cold 10% perchloric acid (3 ml), centrifuged, and the supernatant neutralized with ⅓rd volume of 3 M KOH/3 M KHCO3. […] Plasma was prepared from the blood sample by centrifugation and extracted by addition of methanol to 60% (v/v). The methanolic extract was clarified by centrifugation and filtration and then analyzed by HPLC as described above.

[4] = system: Fasted Rat; experiment: Glucose Lowering Following Oral Administration to the Fasted Rat; format: in vivo; details: oral gavage, 18-hour fasted rats, dose 30 mg/kg, time point 2 h, relative to saline controls
Experimental: Compounds were administered by oral gavage to 18-hour fasted, Sprague Dawley rats (250–300 g, n =3/4/group). Phosphonic acids were prepared in deionized water, and the solution adjusted to neutrality with solidum hydroxide. Prodrugs were dissolved in polyethylene glycol (mw 400). […] The table below indicates the maximum glucose lowering achieved relative to control animals dosed with saline.

[5] = system: Zucker Diabetic Fatty rats; experiment: Blood Glucose Lowering in Zucker Diabetic Fatty Rats, Intravenous; format: in vivo, rat; details: six hour time point
Experimental: 12-week old Zucker Diabetic Fatty rats (Genetics Models Inc., Indiannapolis, Ind.) maintained on Purina 5008 diet were instrumented with tail artery and tail vein catethers at 8 am on the day of the study. Food was removed for the remainder of the day. […] Blood samples were obtained from the tail artery catheter at the start of the infusions, and at hourly intervals thereafter. Glucose was measured in the samples by means of a HemoCue analyzer (HemoCue Inc., Mission Viejo, Calif.) according to the manufacturer's instructions.

[6] = system: Gluconeogenesis in Zucker Diabetic Fatty Rats; experiment: Inhibition of Gluconeogenesis by FBPase Inhibitor in Zucker Diabetic Fatty Rats (14C-bicarbonate to 14C-glucose); format: in vivo, rat; details: after 6-hour infusion at 3 mg/kg/h, n=3/group
Experimental: Following a 6-hour infusion of 3.26 at 3 mg/kg/h or saline to Zucker Diabetic Fatty rats (n=3/group) as described in Example K, a bolus of ^14C-bicarbonate (40 μCi/100 g body weight) was administered via the tail vein catheter. 20 minutes later, a blood sample (0.6 mL) was taken via the tail artery. Blood (0.5 ml) was diluted into 6 mL deionized water and protein precipitated by addition of 1 mL zinc sulfate (0.3 N) and 1 mL barium hydroxide (0.3 N). The mixture was centrifuged (20 minutes, 1000×g) and 5 mL of the resulting supernatant was then combined with 1 g of a mixed bed ion exchange resin (1 part AG 50W-X8, 100–200 mesh, hydrogen form, and 2 parts AG 1-X8, 100–200 mesh, acetate form) to separate ^14-C-bicabonate from ^14C-glucose. The slurry was shaken at room temperature for four hours and then allowed to settle. An aliquot of the supernatant (0.5 mL) was then counted in 5 mL scintillation cocktail. The percentage inhibition of gluconeogenesis in drug-treated rats was calculated by dividing the average cpm of ^14C-glucose in samples from drug-treated animals by those from saline-injected animals.

[7] = system: Zucker Diabetic Fatty rats; experiment: Blood Glucose Lowering in Zucker Diabetic Fatty Rats, Oral; format: in vivo, rat
Experimental: Zucker Diabetic Fatty rats were purchased from Genetics Models Inc. (Indiannapolis, Ind.) at 8 weeks of age and fed the recommended Purina 5008 diet. At the age of 12 weeks, 16 animals with fed blood glucose levels between 500 and 700 mg/dl were selected and divided into two groups (n=8) with statistically equivalent average blood glucose levels. […] The drug solution for this treatment was prepared at 25 mg/ml in deionized water and adjusted to neutrality by dropwise addition of 5 N NaOH. A second group of rats (n=8) was dosed orally with saline, in parallel. Blood glucose was measured in each rat just prior to drug or saline administration and 6 hours post administration. A HemoCue blood glucose analyzer (HemoCue Inc., Mission Viejo, Calif.) was used for these measurements according to the manufacturer's instructions.

## CSc1sc(N)nc1-c1ccc(P(=O)(O)O)o1 [Compound 3.26, 2-Amino-5-methylthio-4-[2-(5-phosphono)furanyl]thiazole]
[1]; 100 mg/kg oral at 8 am and 2 pm, liver taken 6 pm
  liver glycogen stores: reduction of glycogen stores to levels that approached those of nondiabetic db/+ mice
[1]; 100 mg/kg orally at 8 am and 2 pm, Evening, 6 pm
  Liver Glycogen: 34.4 ± 7.1 (n = 3) μmol glucose/g
[2]; 3 mg/kg intravenous
  blood glucose lowering: 52%
[2]; Rattus norvegicus, iv, 10 mg/kg i.v., 1 hour
  inhibition in vivo at 10 mg/kg: 73%
[3]
  concentration at 1 h: 56 ± 2 µM
[4]
  % Glucose Lowering (maximum): 70%
[5]; 3 mg/kg/h tail vein infusion
  decrease in blood glucose relative to saline-infused controls: 29%
[5]; 30 mg/kg/h tail vein infusion
  decrease in blood glucose relative to saline-infused controls: 39%
[6]
  14C-Glucose production inhibited: 75%
[7]; 100 mg/kg oral, 6 hours post administration, p=0.01
  lowering of blood glucose relative to saline treated controls: 15.4%
[7]; 6 hours post 100 mg/kg oral gavage, n=8
  Blood Glucose, 7 pm: 497 ± 14 mg/dL
[7]; just prior to administration of 100 mg/kg by oral gavage, n=8
  Blood Glucose, 1 pm: 573 ± 26 mg/dL
